Experimental data reported in patent publication US5616615A, “Enaminone esters” (priority 1995, dated 1997).
Like-named read-outs stand apart in the source and are kept apart here.

Assays:
[1] = system: Maximal electroshock seizures; assay: MES maximal electroshock seizure test, mice ip; assay type: in vivo; conditions: for responders at 10 mg/kg / responders at 100 mg/kg / responders at 300 mg/kg: Mus musculus, ip; for responders at 10 mg/kg: mice ip; for responders at 10 mg/kg / responders at 100 mg/kg: read-out: MES, animals protected/tested (converted); for responders at 300 mg/kg: read-out: MES, animals protected/tested; for anti-MES protecting ability: Phase I
Description: Three tests were performed:
1. MES--Electroshock Seizure Test
(§1) Maximal electroshock seizures are elicited with a 60-cycle alternating current of 50 mA intensity (5-7 times that necessary to elicit minimal electroshock seizures) delivered via corneal electrodes for 0.2 seconds. A drop of 0.9% saline is instilled in the eye prior to application of the electrodes in order to […].

[2] = system: Subcutaneous Pentylenetetrazol seizure; assay: sc Met subcutaneous pentylenetetrazol (Metrazol) seizure test, mice; assay type: in vivo; conditions: Mus musculus, sc, read-out: scMet, animals protected/tested (converted)
[3] = system: Maximal electroshock seizures; assay: Phase VI oral MES test, rats; assay type: in vivo; conditions: Rattus norvegicus, oral, 50 mg/kg, read-out: MES, animals protected/tested (converted)
Excerpt: as §1
(§2) This oral screen is designated as phase VI.

[4] = in vivo; conditions: rat, po, 50 mg/kg
Excerpt: as §2

[5] = system: seizures; assay: Anticonvulsant evaluation (ASP phase I / overall); assay type: in vivo, mice; conditions: Mus musculus, ip; Phase I; read-out: ASP Classification
Description: The first phase of the ADD Program involved performing tests on male Carworth Farms #1 mice. […] Three tests were performed:
as §1
The animal is observed for 30 minutes.

Structure (SMILES)	responders at 100 mg/kg ([1]; 0.5 h, 30 min) [%]	responders at 300 mg/kg ([1]; 0.5 h, 30 min) [%]	responders at 100 mg/kg ([1]; 4 h, 4 h) [%]	responders at 300 mg/kg ([1]; 4 h, 4 h) [%]	responders at 100 mg/kg ([2]; 0.5 h, 30 min) [%]	responders at 300 mg/kg ([2]; 0.5 h, 30 min) [%]	responders at 100 mg/kg ([2]; 4 h, 4 h) [%]	responders at 300 mg/kg ([2]; 4 h, 4 h) [%]	responders at 50 mg/kg ([3]; 0.5 h, 0.50 h) [%]	responders at 50 mg/kg ([3]; 0.25 h) [%]	responders at 50 mg/kg ([3]; 1.00 h) [%]	responders at 50 mg/kg ([3]; 2.00 h) [%]	responders at 50 mg/kg ([3]; 4.00 h) [%]	Tox, animals toxic/tested [4]	minimal effective dose [5] [mg/kg]	further results
COC(=O)C1C(=O)C=C(Nc2ccc(Cl)cn2)CC1C (centres unmarked) [Compound 116]	66.7	100	0	0	0	100	0	0	100	100	100	100	100	0/4	< 100	responders at 10 mg/kg ([1]; 0.25 h, 0.25 h): 75%; responders at 10 mg/kg ([1]; 0.5 h, 0.50 h): 100%; responders at 10 mg/kg ([1]; 1 h, 1.00 h): 50%; responders at 10 mg/kg ([1]; 2 h, 2.00 h): 0%; responders at 10 mg/kg ([1]; 4 h, 4.00 h): 0%; anti-MES protecting ability [1]: showed anti-MES protecting ability; responders at 300 mg/kg ([2]; 0.5 h, 30 min, second trial): 75%
COC(=O)C1C(=O)C=C(Nc2ccc(Cl)cc2)CC1(C)C (centres unmarked) [Compound 119]	100	100	100	100	0	100	0	100	75	100	100	100	100	0/4	< 100	
CCOC(=O)C1C(=O)C=C(Nc2ccc(F)cc2)CC1C (centres unmarked) [Compound 124]	100	100	0	0	0	100	0	0	100	100	100	100	75	0/4	< 100	responders at 300 mg/kg ([2]; 0.5 h, 30 min, second trial): 50%
CCOC(=O)C1C(=O)C=C(Nc2ccc(C)cc2)CC1C (centres unmarked) [Compound 125]	33.3	100	0	0	0	0	0	0	100	100	100	100	100	0/4	< 100	responders at 10 mg/kg ([1]; 0.25 h, 0.25 h): 25%; responders at 10 mg/kg ([1]; 0.5 h, 0.50 h): 0%; responders at 10 mg/kg ([1]; 1 h, 1.00 h): 25%; responders at 10 mg/kg ([1]; 2 h, 2.00 h): 0%; responders at 10 mg/kg ([1]; 4 h, 4.00 h): 0%; anti-MES protecting ability [1]: showed anti-MES protecting ability
CCOC(=O)C1C(=O)C=C(Nc2ccc(C(C)(C)C)cc2)CC1C (centres unmarked) [Compound 130]	33.3	100	0	0	0	0	0	0	25	25	50	75	25	0/4	< 100	responders at 10 mg/kg ([1]; 0.25 h, 0.25 h): 100%; responders at 10 mg/kg ([1]; 0.5 h, 0.50 h): 75%; responders at 10 mg/kg ([1]; 1 h, 1.00 h): 50%; responders at 10 mg/kg ([1]; 2 h, 2.00 h): 0%; responders at 10 mg/kg ([1]; 4 h, 4.00 h): 0%; anti-MES protecting ability [1]: showed anti-MES protecting ability
CC1(C)CC(=O)C=C(Nc2ccc([N+](=O)[O-])cc2)C1 [Compound 138]	33.3	100	0	0	0	0	0	0	0	0	0	50	0	0/4	< 100	
CC1(C)CC(=O)C=C(Nc2ccc(C(F)(F)F)cc2)C1 [Compound 144]	0	0	66.7	0	0	100	0	0	0	0	75	25	100	0/4	< 100	
CC1CC(=O)C=C(Nc2ccc(Cl)cc2)C1 (centres unmarked) [Compound 146, 3-[(p-Chlorophenyl)amino]-5-methyl-2-cyclohexen-1-one]	100	100	0	100	0	40	0	0	75	25	100	100	50	0/4	< 100	
O=C1C=C(Nc2ccc(Cl)cc2)CCC1 [Compound 147]	100	100	0	100	0	0	0	0	100	75	50	25	25	0/4	< 100	
O=C1C=C(NCc2ccccc2)CCC1 [Compound 148]	100	100	0	0	0	0	0	0	50	0	50	50	75	0/4	< 100	
CC(C)(C)c1ccc(NC2=CC(=O)CCC2)cc1 [Compound 150]	100	100	0	100	0	60	0	0	50	50	75	25	50	0/4	< 100	
